Test results: US20130053336A1, “TREATMENT OF CHLAMYDIACEAE INFECTIONS BY MEANS OF BETA-LACTAMS” (priority 2010, published 2013)
Entries after “also recorded” stand apart in the source; their conditions may differ.

Experiments:
[1] = system: Chlamydia trachomatis serovar L2; test: Development and morphology of inclusions in infected HeLa cells (microscopy); assay type: cell-based
Protocol: HeLa cells were infected with Chlamydia trachomatis serovar L2 and treated with IFN-γ (100 ng/ml), penicillin G (100 U/ml) or gentamicin ([…]). At various times after infection (hours post-infection (hpi)), the cells were fixed and stained with an antibody against Chlamydia sp. (green in the original figure) and with Hoechst (blue in the original figure). The infected HeLa cells treated with penicillin G have abnormal bodies that grow and that are phenotypically quite different from those formed during treatment with IFN-γ. The bodies formed with penicillin G are appreciably different from “classic” persistent bodies. To examine the effects of penicillin G on cell infection with Chlamydia, the host cells were cultivated up to 70% confluence without antibiotics, and then were infected with C. trachomatis strain […]. muridarum at 1 IFU. The infections were carried out at 37° C. for 90 minutes with centrifugation, followed by a washing of extracellular bacteria. At 3 hpi, after the washings, the culture medium was replaced with medium containing either 25 μg/ml gentamicin or 1-100 IU/ml penicillin G. At regular intervals after treatment with penicillin G, the cultures were either fixed in 4% neutral buffered PFA for 30 minutes to be prepared for confocal microscopy, or collected to determine the infectivity of the progeny bacteria, according to the previously described method (Verbeke, P. et al. PLoS Pathog 2:e45, 2006). HeLa cells cultured in monolayers on slides were infected with serovar L2 with an IFU of 1, as described above (Verbeke, P. et al. PLoS Pathog 2:e45, 2006). Three hours after the infection, the medium was removed and replaced with culture medium containing 500 IU/ml (final concentration) recombinant human IFN-γ.

[2] = system: serovar L2 of the Chlamydia trachomatis LGV biovar, serovar D of the trachoma biovar, Chlamydia muridarum; test: Abnormal inclusions in different host cell types, serovars and Chlamydia species; assay type: cell-based; details: THP-1, RL95-2, HeLa, C. muridarum, penicillin G at 3 hpi
From the text: In blue in the original figure; Hoechst, in green in the original figure: anti-Chlamydia sp. Image taken at 24 hpi (RL95-2/Chlamydia L2; HeLa/Chlamydia-D; HeLa/C. muridarum) or at 48 hpi (THP-1/Chlamydia-L2; THP-1/Chlamydia-D). Scale: 10 μm.
In order to examine whether the effects of penicillin G on bacterial infectivity depend on the strain or the serovar, ATCC serovar L2 and C. trachomatis serovar D, graciously provided by Dr. de Barbeyrac (University of Bordeaux II, Bordeaux, France) were used. C. muridarum was obtained from Dr. Roger Rank (University of Arkansas, Little Rock, Ark., USA). The bacteria were propagated as a matter of routine in HeLa cells as described above and stored at −80° C. before use (Scidmore, M. A. Curr Protoc Microbiol Chapter 1: Unit 11A 11, 2005). The number of inclusion forming units (IFU) was determined by immunofluorescence, as described above (Verbeke, P. et al. PLoS Pathog 2:e45, 2006).
To examine the effects of penicillin G on cell infection with Chlamydia, the host cells were cultivated up to 70% confluence without antibiotics, and then were infected with C. trachomatis strain L2 or D, or with C. muridarum at 1 IFU. The infections were carried out at 37° C. for 90 minutes with centrifugation, followed by a washing of extracellular bacteria. […]

[3] = system: Chlamydia trachomatis inclusions; test: Fusion of lysosomes with inclusions (cathepsin D, LysoTracker, confocal microscopy); assay type: cell-based
[4] = system: persistent forms of Chlamydia; test: Penicillin G on persistent infection induced by IFN-γ; assay type: cell-based, Chlamydia trachomatis
Protocol: HeLa cells cultured in monolayers on slides were infected with serovar L2 with an IFU of 1, as described above (Verbeke, P. et al. PLoS Pathog 2:e45, 2006). Three hours after the infection, the medium was removed and replaced with culture medium containing 500 IU/ml (final concentration) recombinant human IFN-γ. The infected cells were incubated for an additional 100 hours in the presence of IFN-γ before being prepared for confocal microscopy as described below.
HeLa cells cultured in monolayers on slides were infected with Chlamydia trachomatis serovar L2 and treated with penicillin G, as described above. Twenty hours after infection, the culture was washed and the medium replaced with medium free of penicillin G. Between 48 and 100 hpi, the cells and the culture medium were collected at various intervals and a titration test was performed according to the method of the prior art (Scidmore, M. A. Curr Protoc Microbiol Chapter 11: Unit 11A 11, 2005). To determine whether treatment with penicillin G could affect bacterial persistence, HeLa cells infected with L2 and treated with IFN-γ and penicillin G (500 IU/ml) from 48 hpi (i.e. 24 hours after treatment with IFN-γ) to 72 hpi (i.e. 48 hours after treatment with IFN-γ). The slides were then fixed and observed using an epifluorescence microscope (Leica D M, Leica, Mannheim, Germany) equipped with two sets of detection filters (Hoechst 360/40 nmBP-425 nmLP; FITC 480/40 nmBP-527/30 nmBP) and connected to a CCD camera CCC.
The effects of penicillin G were tested on persistent infections. Cells were infected and then treated with IFN-γat 3 hpi. Once the appearance of persistent inclusions was observed under the microscope, penicillin G was added to the infected cells cultured in the presence of IFN-γ.

For `CC1(C)S[C@@H]2[C@H](NC(=O)Cc3ccccc3)C(=O)N2[C@H]1C(=O)O` [Penicillin G, benzylpenicillin], the “growth of the bacterial inclusions” value ([1]; infected HeLa cells, videomicroscopy / culture for 4 days) was “grow as quickly as those of cells treated with gentamicin”, the “time at which infected treated cells were lysed” value ([1]; penicillin G) was 120 hours post-infection (hpi) and the “appearance of abnormally dilated structures depending on time of addition” value ([1]; penicillin G added at various times after infection) was “only when penicillin G is added in the first phase of the bacterial cycle (before 24 hpi)”. The “generation of abnormal inclusions in other host cells, serovars, species” value [2] was “independent of the type of host cell, serovar, biovar or even species of Chlamydia bacterium used; also recorded: exhibiting abnormal inclusions”, the “localization of cathepsin D in inclusions” value ([3]; HeLa, 24 hpi) was “the majority of the abnormal bacterial forms contained cathepsin D” and the “cathepsin D in abnormal inclusions of other cell/serovar pairs” value ([3]; RL95-2 cells/serovar L2 or HeLa cells/serovar D) was “also contain cathepsin D”. The “LysoTracker-stained compartments and inclusions” value ([3]; confocal videomicroscopy) was “compartments stained with LysoTracker probes enter abnormal inclusions”, the “inclusion growth of persistent inclusions after addition of penicillin G” value ([4]; cells kept in IFN-γ) was “Rapid reinitiation of inclusion growth” and the “infectivity of bacteria released on lysis” value ([4]; persistent infection) was “noninfectious”. For the same compound, the “time of cell lysis after start of treatment” value ([4]; persistent infection, IFN-γ present) was 70 h and the “cathepsin D in bacterial forms of persistent infection” value ([4]; twenty-four hours after addition of penicillin G) was “most of the abnormal bacterial forms contained cathepsin D”.
